From patent US20190060428A1, “FORMULATIONS FOR NEOPLASIA VACCINES AND METHODS OF PREPARING THEREOF” (The Broad Institue Inc., priority 2015, published 2019) come the findings set out here.

A short description of this series: physchem. As to conditions: pH 6.

Turning to H-VEQGHVRVGPDVVTHPAFLV-OH, the solubility is more than 2000 µg/mL.

As for H-SRNTGHLHPTPRFPLLRWTQEPQPLE-OH, the solubility is more than 2000 µg/mL.

Take H-GSVLQFMPFTTVSELMKVSAMSSPKV-OH: the solubility is more than 2000 µg/mL.

As to H-TLKEEVNELQYRQKQLELLITNLMRQVD-OH, the solubility is less than 2000 µg/mL.

On to H-SHTQTTLFHTFYELLIQKNKHK-OH, for which the solubility is more than 2000 µg/mL.

H-TAQFAPSPGQPPALSPSYPGHRLPLQQG-OH displayed a solubility of more than 2000 µg/mL.

As for H-VQLSIQDVIRRARLSTVPTAQRVALRSGWI-OH, the solubility is more than 2000 µg/mL.

As for H-TTTSVKKEELVLSEEDFQGITPGAQ-OH, the solubility was less than 2000 µg/mL.

The molecule H-VSWGKKVQPIDSILADWNEDIEAFEMMEKD-OH gave a solubility of more than 2000 µg/mL.

The molecule H-RARQILIASHLPFYELRHNQVES-OH displayed a solubility of more than 2000 µg/mL.

With H-VPDINMEKKLRKIRAQTQKHLDLYARDG-OH, the solubility is more than 2000 µg/mL.

H-SGSPPLRVSVGDFSQEFSPIQEAQQD-OH showed a solubility of more than 2000 µg/mL.

Turning to H-GTKALQLHSIAGRWPRMEPWVVESMSLGVP-OH, the solubility was more than 2000 µg/mL.

Turning to H-FAKGFRESDLNSWPVAPRPLLSV-OH, the solubility is more than 2000 µg/mL.

H-TLDDIKEWLEDEGQVLNIQMRRTLHK-OH came in with a solubility of less than 2000 µg/mL.

On to H-RYNSTAATNEVSEVTVFSKSPVT-OH, for which the solubility was more than 2000 µg/mL.

As for H-TTVTHERKQAKVVNPPIQEVGKGARK-OH, the solubility was more than 2000 µg/mL.

Turning to H-SERYIGTEGGGMDQSILFLAEEGTAK-OH, the solubility was less than 2000 µg/mL.

In the case of H-TKRQVILLHTELERFLEYLPLRF-OH, the solubility is more than 2000 µg/mL.

Molecule H-AHRQGEKQHLLPVFSRLALRLPWRHSVQL-OH displayed a solubility of more than 2000 µg/mL.

H-PSTANYNSFSSAPMPQIPVASVTPT-OH registered a solubility of more than 2000 µg/mL.

Regarding H-SKRGVGAKTLLLPDPFLFWPCLEGTRRSL-OH, the solubility was more than 2000 µg/mL.

H-GRMSPSQFARVPGYVGSPLAAMNPK-OH came in with a solubility of more than 2000 µg/mL.

H-DLSYVSDQNGGVPDQILLHLRPTED-OH yielded a solubility of more than 2000 µg/mL.

Molecule H-TFPKKIQMLARDFLDEY-OH showed a solubility of more than 2000 µg/mL.

In turn, H-GSGALGAVGATKVPRNQDWL-OH showed a solubility of more than 2000 µg/mL.

H-PASAKSRREFDKIELAYRR-OH registered a solubility of more than 2000 µg/mL.

In the case of H-VTSPKASPVTFPAAAFPTASPANKD-OH, the solubility is more than 2000 µg/mL.

In the case of H-DVTYDGHPVLGSPYTVEASL-OH, the solubility was less than 2000 µg/mL.

Regarding H-LEEVAQRSHAVRSPGSPLILEVG-OH, the solubility was more than 2000 µg/mL.

In turn, H-SPQSGGAATLAAQARLQPVHLDVWGEHERG-OH came in with a solubility of more than 2000 µg/mL.

On to H-LPDEVSGLEQLESIINFEKL-OH, for which the solubility was more than 2000 µg/mL.

For the molecule H-DDNGNILDPDKTSTIALFKAHEV-OH, the solubility was more than 2000 µg/mL.

On to H-YRMYQKGQETSTNLIASIFA-OH, for which the solubility is less than 2000 µg/mL.

H-ALCPASRALEEKKGNYVV-OH had a solubility of more than 2000 µg/mL.

Molecule H-STEVEPKESPHLARHRHLMKTLVKSLST-OH yielded a solubility of more than 2000 µg/mL.

With H-DDSLHIQATYISGPVLAGSGD-OH, the solubility is more than 2000 µg/mL.

As to H-DGVSEEFWLVDLLPSTHYT-OH, the solubility is less than 2000 µg/mL.

The molecule `CC(C)C[C@H](NC(=O)[C@H](C)N)C(=O)N[C@@H](CCC(=O)O)C(=O)N[C@@H](CCC(=O)O)C(=O)N[C@@H](CCCCN)C(=O)N[C@@H](CCCCN)C(=O)NCC(=O)N[C@@H](CC(N)=O)C(=O)N[C@@H](Cc1ccc(O)cc1)C(=O)N[C@H](C(=O)N[C@H](C(=O)N[C@H](C(=O)N[C@@H](CC(=O)O)C(=O)N[C@@H](Cc1c[nH]cn1)C(=O)NCC(=O)N[C@@H](CO)C(=O)N[C@@H](CS)C(=O)N[C@H](C(=O)O)C(C)C)[C@@H](C)O)C(C)C)C(C)C` returned a solubility of more than 2000 µg/mL.

Take H-DGAWPVLLDKFVEWYKDKQMS-OH: the solubility was more than 2000 µg/mL.

With H-ASATEPANDSLFSPGAANLFSTYLAR-OH, the solubility is more than 2000 µg/mL.

H-DVTGPHLYSIYLHGSTDKLPYVTMGS-OH showed a solubility of more than 2000 µg/mL.

As for H-GDQYKATDFVADWAGTFKMVFTPKDGSG-OH, the solubility is more than 2000 µg/mL.

The term solubility denotes the dissolved amount per volume that the medium holds. A low value points to a poorly soluble substance.
